Tested on: Human primary myoblasts
Experiment: Myogenic amplification and commitment of muscle stem cells (Pax7/MyoD staining, image quantification)
Assay type: cell-based
Conditions: donors 1 and 2 pooled, dose response, 96 hours, normalized to total cell number, control DMSO 1%; for proportion of MyoD+ cells (differentiating), fold change compared to the control condition: FIG. 1B/2B
Description: Human Skeletal Muscle Myoblasts were purchased from Lonza (https://bioscience.lonza.com). These cells were isolated from the upper arm or leg muscle tissue of normal donors and used after the second passage. Several donors were tested to ensure cell viability and purity before selecting the final donors, which are a person (refer thereafter as Donor 1), a person (refer thereafter as Donor 2) and a person (refer thereafter as Donor 3). Human primary myoblasts were seeded in 384 well plates at a density of 1′000 cells per well in skeletal muscle growth medium (SKM-M, AMSbio). For treatment, compounds were directly added to the myoblast cultures 16 hours after initial plating. All cultures were then grown for 96 hours. Cells were stained for Pax7 and MyoD expression using antibodies directed against Pax7 and MyoD and counterstained with Hoechst 33342 to visualize cell nuclei. Pax7+ cells are defined as cells that express Pax7 regardless of MyoD expression. […] Image acquisition was performed using the ImageXpress (Molecular Devices) platform. Custom module analysis based on Multi-Wavelength Cell Scoring of the MetaXpress software was used for quantification. *, **, ***, **** indicates difference from the control, One-way ANOVA, with p<0.05, p<0.01, p<0.001, p<0.0001, respectively. Data are presented as Mean+/−SEM. Human primary myoblasts from different donors (donor 1, donor 2 or donor 3) were seeded in 384 well plates at a density of 1′000 cells per well in skeletal muscle growth medium (SKM-M, AMSbio). For treatment, compounds were directly added to the myoblast cultures 16 hours after initial plating. All cultures were then grown for 96 hours. Cells were stained for Pax7 and MyoD expression using antibodies directed against Pax7 and MyoD and counterstained with Hoechst 33342 to visualize cell nuclei. Pax7+ cells are defined as cells that express Pax7 regardless of MyoD expression. […] Image acquisition was performed using the ImageXpress (Molecular Devices) platform. Custom module analysis based on Multi-Wavelength Cell Scoring of the MetaXpress software was used for quantification. […]

NC(=O)c1cccnc1 [Nicotinamide]
proportion of Pax7+ cells (amplifying), fold change compared to the control condition (FIG. 1A/2A): increasing the proportion of both amplifying (Pax7+) and differentiating (MyoD+) cells in a dose dependent manner | proportion of MyoD+ cells (differentiating), fold change compared to the control condition: increasing the proportion of both amplifying (Pax7+) and differentiating (MyoD+) cells in a dose dependent manner

Cc1ncc(CO)c(CO)c1O [Pyridoxine]
proportion of MyoD+ cells (differentiating), fold change compared to the control condition: increasing the proportion of differentiating (MyoD+) cells in a dose dependent manner
